Assay results: ChEMBL document CHEMBL1159363, “New cytotoxic alkaloids from the wood of Vepris punctata from the Madagascar rainforest” (J Nat Prod, 2003)
In brackets after ≈: the same amount, converted by molar mass.

System: A2780
Assay: Cytotoxicity against human A2780 cells
Assay type: functional, cell-based

Row | SMILES | IC50 [µg/mL]
1 | COc1ccc2c(OC)c3ccoc3nc2c1OC [SKIMMIANINE] | 4.2 (≈ 16.2 µM)
2 | COc1c(OC)c(OC)c2c(OC)c3ccoc3nc2c1OC | 3.4 (≈ 10.6 µM)
3 | COc1cc2nc3occc3c(OC)c2cc1OC [KOKUSAGININE] | 3.5 (≈ 13.5 µM)
4 | COc1c2c(c(OC)c3c(OC)c4ccoc4nc13)OCO2 | 3.5 (≈ 11.5 µM)
5 | COc1c2cc3c(cc2nc2occc12)OCO3 [MACULINE] | 4 (≈ 16.4 µM)
6 | COc1c2c(cc3nc4occc4c(OC)c13)OCO2 | 2.8 (≈ 10.2 µM)
7 | COc1c2ccoc2nc2c(OC)c3c(cc12)OCO3 [FLINDERSIAMINE] | 3.3 (≈ 12.1 µM)
